Data: patent US12195427B2, “MASP-2 inhibitors and methods of use” (priority 2018, dated 2025)
Structures can show the parent of a compound that is named as a salt.

Target: MASP-2 CCP2-SP (Homo sapiens (Human), UniProt O00187)
Test: MASP-2 co-crystallization, X-ray crystallography and structure analysis (H-bonds, van der Waals contacts);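 as to Ligand-pharmacophore element distance, pharmacophore element C2: distance from averaged pharmacophore element to bound ligand; missing value means element absent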;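 as to Ligand-pharmacophore element distance, pharmacophore element C3: distance from averaged pharmacophore element to bound ligand; missing value means element absent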;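 as to Ligand-pharmacophore element distance, pharmacophore element C4: distance from averaged pharmacophore element to bound ligand; missing value means element absent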;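 as to Ligand-pharmacophore element distance, pharmacophore element C5: distance from averaged pharmacophore element to bound ligand; missing value means element absent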
Set-up: van der Waals contact distance, MASP-2 HIS 483 atom CD2 / van der Waals contact distance, MASP-2 HIS 483 atom NE2 / van der Waals contact distance, SER 654 C to compound atom / van der Waals contact distance, SER 654 O to compound atom / van der Waals contact distance, TRP 655 C to compound atom / van der Waals contact distance, MASP-2 GLY 528 atom CA / van der Waals contact distance TRP 655 atom CZ3 / van der Waals contact distance TRP 655 atom N / van der Waals contact distance TRP 655 atom CE3 / van der Waals contact distance GLY 656 atom C / van der Waals contact distance GLY 656 atom CA / van der Waals contact distance GLY 656 atom O / van der Waals contact distance, MASP-2 TYR 607 atom CD1 / van der Waals contact distance, MASP-2 PRO 606 atom O / d(C3,CA1) / d(CA1,N1)2 / d(H4,O1) / d(H4,O2) / d(O1,O2) / d(CA1,O2) / d(CA6,O1) / d(CA6,O2) / d(CA1,C5) / d(O2,H3) / d(N2,C2) / d(CA5,N2) / d(N2,C4) / d(N2,C6) / d(N2,CA3) / d(N2,O3) / d(O4,H2): unit not given beside the values
Outline: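 Contacts and H-bonds come from partially refined soaked-crystal structures of recombinant human CCP2-SP made in E. coli, solved by molecular replacement against 1Q3X fragments. Where several ligand poses appeared, only one was analysed; listed nonbonded contacts may include possible H-bond pairings.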

[1] = Table A5-1 pharmacophore: distance between elements, S2/S1 region
[2] = Table A5-2 pharmacophore distance, S3/S4 region
[3] = Table A7-1, between pharmacophore elements of the bound compound
[4] = Table A7-2, between pharmacophore elements of the bound compound

Chain of MASP-2 CCP2-SP (O00187 445-686): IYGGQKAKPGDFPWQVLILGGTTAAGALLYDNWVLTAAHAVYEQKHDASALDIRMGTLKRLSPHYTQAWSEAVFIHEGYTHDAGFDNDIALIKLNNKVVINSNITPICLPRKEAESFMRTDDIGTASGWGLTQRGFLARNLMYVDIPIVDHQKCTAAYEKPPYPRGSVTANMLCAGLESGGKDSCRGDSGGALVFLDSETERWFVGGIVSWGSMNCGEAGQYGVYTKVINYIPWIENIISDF
Chain of MASP-2 CCP2-SP (O00187 364-432 partner): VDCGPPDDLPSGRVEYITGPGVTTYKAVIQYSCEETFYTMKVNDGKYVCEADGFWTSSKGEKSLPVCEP

SMILES: Cc1nc(N)ccc1CNC(=O)[C@H](C)NC(=O)[C@H]1C[C@H](Cc2ccccc2-c2ccccc2)CN1 [compound 1373, (2R,4S)-4-([1,1′-Biphenyl]-2-ylmethyl)-N—((S)-1-(((6-amino-2-methylpyridin-3-yl)methyl)amino)-1-oxopropan-2-yl)pyrrolidine-2-carboxamide Di-trifluoroacetate salt]
- H-bond distance to MASP-2 ASP 627 atom OD2 (Table A1 (H-Bonds), ASP 627 OD2): 3.21
- H-bond distance to MASP-2 GLY 656 atom N (Table A1 (H-Bonds), GLY 656 N): 3.2
- H-bond distance to MASP-2 GLY 656 atom O (Table A1 (H-Bonds), GLY 656 O): 2.76
- H-bond distance to MASP-2 SER 628 atom O (Table A1 (H-Bonds), SER 628 O): 3.18
- H-bond distance to MASP-2 SER 654 atom O (Table A1 (H-Bonds), SER 654 O): 3.04
- H-bond distance to MASP-2 SER 657 atom O (Table A1 (H-Bonds), SER 657 O): 2.89
- van der Waals contact distance, MASP-2 HIS 483 atom CD2 (Table A2-1): 3.71
- van der Waals contact distance, MASP-2 HIS 483 atom NE2 (Table A2-1): 3.62
- van der Waals contact distance, MASP-2 GLY 528 atom CA (Table A2-2): 3.79
- van der Waals contact distance, MASP-2 amino acid atom to compound atom (Table A2-7: SER 628 (CB, O, OG)): 3.64
- van der Waals contact distance, VAL 653 CG1 to compound atom (Table A2-11): 3.34
- van der Waals contact distance, SER 654 O to compound atom (Table A2-12): 3.83
- van der Waals contact distance, TRP 655 CA to compound atom (Table A2-12): 3.44
- van der Waals contact distance TRP 655 atom CE3 (Table A2-13, MASP-2 TRP 655 CE3, compound atom in line below): 3.65
- van der Waals contact distance TRP 655 atom CZ3 (Table A2-13, MASP-2 TRP 655 CZ3): 3.57
- van der Waals contact distance, MASP-2 amino acid atom to compound atom (Table A2 section before Table A2-8): 3.83
- Ligand-pharmacophore element distance, pharmacophore element C2 (Table A4-1, element C2): 0
- Ligand-pharmacophore element distance, pharmacophore element C3 (Table A4-1, element C3): 0.08
- Ligand-pharmacophore element distance, pharmacophore element C4 (Table A4-1, element C4): 0
- Ligand-pharmacophore element distance, pharmacophore element C5 (Table A4-1, element C5): 0
- Ligand-pharmacophore element distance, pharmacophore element C6 (Table A4-1, element C6): 0
- Ligand-pharmacophore element distance, pharmacophore element C7 (Table A4-1, element C7): 0
- Ligand-pharmacophore element distance, pharmacophore element CA1 (Table A4-1, element CA1): 0.56
- Ligand-pharmacophore element distance, pharmacophore element CA2 (Table A4-1, element CA2): 0.54
- Ligand-pharmacophore element distance, pharmacophore element CA3 (Table A4-1, element CA3): 0
- Ligand-pharmacophore element distance, pharmacophore element CA4 (Table A4-1, element CA4): 0
- Ligand-pharmacophore element distance, pharmacophore element CA5 (Table A4-1, element CA5): 2.5
- Ligand-pharmacophore element distance, pharmacophore element CA6 (Table A4-1, element CA6): 0
- d(C3,CA1) [1]: 2.85
- d(CA1,N1)2 [1]: 1.37
- d(CA1,O1) [1]: 4.41
- d(CA1,O2) [1]: 3.86
- d(H4,O1) [1]: 4.40
- d(H4,O2) [1]: 3.78
- d(O1,O2) [1]: 3.38
- d(CA5,N2) [2]: 6.60
- d(N2,CA2) [2]: 6.03
- d(O2,H3) [2]: 4.31
- d(O2,N2) [2]: 2.65
- a(C3, CA1, O1) (Table A6-1 pharmacophore angle): 149.81
- a(CA1, O1, O2) (Table A6-1 pharmacophore angle): 105.28
- a(O1, O2, H4) (Table A6-1 pharmacophore angle): 131.90
- a(N1, CA1, O1) b) (Table A6-1 pharmacophore angle, Methyl-amino-pyridine compounds): 174.08
- a(O1, O2, H3) (Table A6-2 pharmacophore angle): 147.32
- a(O1, O2, N2) (Table A6-2 pharmacophore angle): 141.07
- a(O2, N2, CA2) (Table A6-2 pharmacophore angle): 156.78
- Pharmacophore torsion angle a(C3, CA1, O1, H4) [3]: 25.67
- Pharmacophore torsion angle a(H4, O1, O2, H3) [3]: 50.98
- Pharmacophore torsion angle a(H4, O1, O2, N2) [3]: 139.02
- Pharmacophore torsion angle a(N1, CA1, O1, H4) [3]: 4.28
- Pharmacophore torsion angle a(O1, H4, O2, CA1) [3]: −84.42
- Pharmacophore torsion angle a(O1, O2, N2, CA2) [4]: 127.58
- Pharmacophore torsion angle a(O1, O2, N2, CA5) [4]: 91.76
